In US11440906B2, “Biguanide derivatives and their rearrangement products for use in the treatment of cancer” (CENTRE NATIONAL DE LA RECHERCHE SCIENTIFIQUE, priority 2017, dated 2022):
Read-outs that look alike come from different tables or passages of the source.

Tested on: A375 Sensitive cells
Experiment: Viability test, trypan blue exclusion, A375 Sensitive cells
Type: cell-based, human
Settings: Homo sapiens, A-375, viable cells as percentage of DMSO control
Source text: Different melanoma cell lines were purchased from the American Tissue Culture Collection: A375 and WM9 cells are mutated on B-Raf, CDKN2A and PTEN proteins; SKmel28 cells are mutated on B-Raf and P53 proteins; 1205Lu cells are mutated on B-Raf and PTEN proteins; G-361 cells are mutated on B-Raf and CDKN2A proteins; C8161 cells are mutated on B-Raf and K-Ras proteins; WM3912 cells are mutated on B-Raf and CDKN2A proteins; MeWo cells are mutated on P53 and CDKN2A proteins; WM3918 presents no mutations on characteristic proteins.
For trypan blue staining, […] of cells (melanoma and normal human cells) were aseptically transferred to a 1.5 mL clear Eppendorf tube and incubated for 3 min at room temperature with an equal volume of 0.4% trypan blue solution. Viable cells were counted and the results are expressed as the percentage of the value of control cells. All the experiments are performed 3 times in triplicate.
A375 Sensitive cells were treated with different concentrations of the synthesized molecules (5.0 μM or 10 μM) for different times (24 hr or 48 hr) or with DMSO (Control) for 12 or 48 hr. At the end of the stimulation, viable cells were counted using the trypan blue dye exclusion method. The results are normalized as percentages compare to the control.
A375 Sensitive cells were treated with 5 μM of CRO15 for different times (2 hr, 4 hr, 6 hr, 8 hr, 12 hr, 24 hr or 48 hr) or with 5 μM of PLX4032 (B-Raf inhibitor) for 48 hr or with DMSO (Control) for 48 hr. At the end of stimulation, viable cells were counted using the trypan blue dye exclusion method. The results are normalized as percentages compare to the control and data means±SEM of three independent experiments performed in triplicate *p<0.05; **p<0.01; ***p<0.001.
A375 Sensitive cells were treated with different concentrations of CRO15 (0.5 μM, 2.5 μM, 5.0 μM, 7.5 μM, 50 μM) for 48 hr or with 5 μM of PLX4032 (B-Raf inhibitor) for 48 hr or with DMSO (Control) for 48 hr. At the end of the stimulation, viable cells were counted using the trypan blue dye exclusion method. The results are normalized as percentages compare to the control and data means±SEM of three independent experiments performed in triplicate *p<0.05; **p<0.01; ***p<0.001.
A375 sensitive and resistant melanoma cells were treated with 5 μM of CRO15 for 48 hr or with 5 μM of PLX4032 for 48 hr or with DMSO (Control). At 48 hours, viable cells were counted using the trypan blue dye exclusion method. The results are normalized as percentages compare to the control and data means±SEM of three independent experiments performed in triplicate *p<0.05; **p<0.01; ***p<0.001.

[1] = 24 h, read-out: Viab A375 5 μM/ 24 h
[2] = 48 h, read-out: Viab A375 5 μM/ 48 h
[3] = 24 h, read-out: Viab A375 10 μM/ 24 h
[4] = 48 h, read-out: Viab A375 10 μM/ 48 h

Row | Structure (SMILES) | viability at 5 µM [1] | viability at 5 µM [2] | viability at 10 µM [3] | viability at 10 µM [4]
1 | Cc1ccc2nc(NC(=N)NC(=N)c3cccc(Br)c3)sc2c1 [MTF 265, 3-bromo-N—(N-(6-methylbenzo[d]thiazol-2-yl)carbamimidoyl)benzimidamide] | 91% | 100% | 84% | 60%
2 | N=C(NC(=N)c1cccc(Cl)c1)Nc1nc(-c2ccccc2)cs1 [MTF 267, 3-chloro-N—(N-(4-phenylthiazol-2-yl)carbamimidoyl)benzimidamide] | 113% | 113% | 134% | 73.3%
3 | N=C(NC(=N)c1ccccc1)Nc1nc(-c2ccccc2)cs1 [MTF 272, N—(N-(4-phenylthiazol-2-yl)carbamimidoyl)benzimidamide] | 100% | 81% | 88% | 54.6%
4 | N=C(NC(=N)c1cccnc1)Nc1nc(-c2ccccc2)cs1 [MTF 273, N—(N-(4-phenylthiazol-2-yl)carbamimidoyl)nicotinimidamide] | 46% | 48% | 100% | 100%
5 | N=C(NC(=N)c1ccncc1)Nc1nc(-c2ccccc2)cs1 [MTF 274, N—(N-(4-phenylthiazol-2-yl)carbamimidoyl)isonicotinimidamide] | 83% | 93% | 84% | 89%
6 | N=C(NC(=N)c1ccccc1Cl)Nc1nc(-c2cccc([N+](=O)[O-])c2)cs1 [MTF 276, 2-chloro-N—(N-(4-(3-nitrophenyl)thiazol-2-yl)carbamimidoyl)benzimidamide] | 91.6% | 95.3% | 73.9% | 64.9%
7 | N=C(NC(=N)c1cccc(Cl)c1)Nc1nc(-c2cccc([N+](=O)[O-])c2)cs1 [MTF 277, 3-chloro-N—(N-(4-(3-nitrophenyl)thiazol-2-yl)carbamimidoyl)benzimidamide] | 77.6% | 88% | 76.4% | 85.8%
8 | N=C(NC(=N)c1ccc(Cl)cc1)Nc1nc(-c2cccc([N+](=O)[O-])c2)cs1 [MTF 281, 4-chloro-N—(N-(4-(3-nitrophenyl)thiazol-2-yl)carbamimidoyl)benzimidamide] | 79% | 112% | 57.4% | 78%
9 | Cc1csc(NC(=N)NC(=N)c2ccccc2)n1 [MTF 283, N—(N-(4-methylthiazol-2-yl)carbamimidoyl)benzimidamide] | 100% | 56% | 100% | 150%
10 | Cc1csc(NC(=N)NC(=N)c2ccccc2Cl)n1 [MTF 284, 2-chloro-N—(N-(4-methylthiazol-2-yl)carbamimidoyl)benzimidamide] | 80.1% | 117% | 104% | 76.9%
11 | Cc1csc(NC(=N)NC(=N)c2cccc(Cl)c2)n1 [MTF 285, 3-chloro-N—(N-(4-methylthiazol-2-yl)carbamimidoyl)benzimidamide] | 45% | 100% | 77.8% | 78.7%
12 | Cc1csc(NC(=N)NC(=N)c2ccc(Cl)cc2)n1 [MTF 286, 4-chloro-N—(N-(4-methylthiazol-2-yl)carbamimidoyl)benzimidamide] | 48% | 155% | 65.3% | 120%
13 | Cc1csc(NC(=N)NC(=N)c2ccccc2Br)n1 [MTF 287, 2-bromo-N—(N-(4-methylthiazol-2-yl)carbamimidoyl)benzimidamide] | 60.9% | 86.7% | 53.7% | 69.5%
14 | Cc1csc(NC(=N)NC(=N)c2cccc(Br)c2)n1 [MTF 288, 3-bromo-N—(N-(4-methylthiazol-2-yl)carbamimidoyl)benzimidamide] | 50% | 96.7% | 70% | 53.5%
15 | Cc1csc(NC(=N)NC(=N)c2ccccn2)n1 [MTF 289, N—(N-(4-methylthiazol-2-yl)carbamimidoyl)picolinimidamide] | 81.1% | 90.4% | 78.7% | 58.2%
16 | Cc1csc(NC(=N)NC(=N)c2cccnc2)n1 [MTF 290, N—(N-(4-methylthiazol-2-yl)carbamimidoyl)nicotinimidamide] | 43.4% | 21.6% | 50.5% | 14.4%
17 | Cc1csc(NC(=N)NC(=N)c2ccncc2)n1 [MTF 291, N—(N-(4-methylthiazol-2-yl)carbamimidoyl)isonicotinimidamide] | 100% | 95.2% | 100% | 41.3%
18 | COc1ccc(C(=N)NC(=N)Nc2nc(C)cs2)cc1 [MTF 292, 4-methoxy-N—(N-(4-methylthiazol-2-yl)carbamimidoyl)benzimidamide] | 88.1% | 83.3% | 142% | 71.9%
19 | Cc1nc(NC(=N)NC(=N)c2ccccc2Br)sc1C [MTF 295, 2-bromo-N—(N-(4,5-dimethylthiazol-2-yl)carbamimidoyl)benzimidamide] | 109% | 37.3% | 66.1% | 39.3%
20 | Cc1nc(NC(=N)NC(=N)c2ccccn2)sc1C [MTF 297, N—(N-(4,5-dimethylthiazol-2-yl)carbamimidoyl)picolinimidamide] | 86.2% | 59.8% | 97.9% | 24.9%
21 | Cc1nc(NC(=N)NC(=N)c2cccnc2)sc1C [MTF 298, N—(N-(4,5-dimethylthiazol-2-yl)carbamimidoyl)nicotinimidamide] | 97.2% | 73.6% | 87.5% | 54.7%
22 | Cc1nc(NC(=N)NC(=N)c2ccncc2)sc1C [MTF 299, N—(N-(4,5-dimethylthiazol-2-yl)carbamimidoyl)isonicotinimidamide] | 91.1% | 76.6% | 72.8% | 46.2%
23 | Cc1nc(NC(=N)NC(=N)c2ccccc2Cl)sc1C [MTF 300, 2-chloro-N—(N-(4,5-dimethylthiazol-2-yl)carbamimidoyl)benzimidamide] | 96% | 60% | 50.8% | 35.9%
24 | Cc1nc(NC(=N)NC(=N)c2cccc(Cl)c2)sc1C [MTF 301, 3-chloro-N—(N-(4,5-dimethylthiazol-2-yl)carbamimidoyl)benzimidamide] | 74% | 47% | 106% | 31.6%
25 | Cc1nc(NC(=N)NC(=N)c2ccc(Cl)cc2)sc1C [MTF 302, 4-chloro-N—(N-(4,5-dimethylthiazol-2-yl)carbamimidoyl)benzimidamide] | 105% | 52.3% | 94.8% | 39.3%
